Where two headings read alike, the source gives them in different places.
What was measured:
[1] = test system: mouse neuroblastoma cell line neuro-2a; experiment: Activity on neuro-2a, cells with outgrown neurites; type: cell-based
Outline: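 Mouse neuro-2a cells in DMEM with FCS exposed to compounds for 24 h (up to 6 concentrations, triplicate runs), glutaraldehyde-fixed and methylene blue-stained. Proportion of cells bearing a neurite at least twice the cell's long diameter counted microscopically over ≥200 cells.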

[2] = test system: mice; experiment: Acute toxicity, mouse; type: in vivo; settings: 24 hours
Protocol: (§1) The acute toxicity of the compounds of the invention was examined by the following method.
(§2) Male ddy-strain 5-week old mice and male Wistar-strain 8 week old rats, five per group, were used as experimental animals. Each of the compounds was dissolved in saline and administered perorally, and the toxicity of the compound was assessed 24 hours after the administration.

[3] = Acute toxicity, mouse; type: in vivo; settings: in vivo, po, read-out: Presumed LD50
Protocol: as §1, §2

[4] = Table 3 Run No. 2, 0.1 mM, control 1.9 ± 0.9
[5] = Table 3 Run No. 4, 0.1 mM, control 3.1 ± 0.2
[6] = Table 3 Run No. 4, 0.5 mM, control 3.1 ± 0.2
[7] = Table 3 second Run No. 5, 0.3 mM, control 4.5 ± 0.3
[8] = Table 3 second Run No. 5, 0.5 mM, control 4.5 ± 0.3

CCOC(=O)c1cnc(N2CCNCC2)nc1N [Compound 120]
Cells having neurites with a length at least twice the long diameter of cell/total number of cells [1, 4]: 10.2 ± 3.7% | Cells having neurites with a length at least twice the long diameter of cell/total number of cells ([1]; Table 3 Run No. 10, 0.003 mM, control 1.7 ± 0.7): 2.6 ± 0.6% | Cells having neurites with a length at least twice the long diameter of cell/total number of cells ([1]; Table 3 Run No. 10, 0.1 mM, control 1.7 ± 0.7): 6.5 ± 1.7% | Number of dead animals/number of test animals ([2]; Table 6, 300 mg/kg p.o.): 0/5 | Number of dead animals/number of test animals ([2]; Table 6, 500 mg/kg p.o.): 1/5 | Number of dead animals/number of test animals ([2]; Table 6, 1000 mg/kg p.o.): 4/5 | LD50 at 24 h ([3]; Table 6, p.o.): 550 to 1000 mg/kg

CCCCOc1ccnc(N2CCNCC2)n1 [Compound 128]
Cells having neurites with a length at least twice the long diameter of cell/total number of cells ([1]; Table 3 Run No. 1, 0.028 μM, control 2.2 ± 0.8): 4.4 ± 0.7% | Cells having neurites with a length at least twice the long diameter of cell/total number of cells ([1]; Table 3 Run No. 1, 0.29 μM, control 2.2 ± 0.8): 3.4 ± 0.6% | Cells having neurites with a length at least twice the long diameter of cell/total number of cells ([1]; Table 3 Run No. 1, 28 μM, control 2.2 ± 0.8): 5.2 ± 0.9% | Number of dead animals/number of test animals ([2]; Table 6, 300 mg/kg p.o.): 0/5 | Number of dead animals/number of test animals ([2]; Table 6, 500 mg/kg p.o.): 3/5 | Number of dead animals/number of test animals ([2]; Table 6, 1000 mg/kg p.o.): 4/5 | LD50 at 24 h ([3]; Table 6, p.o.): 300 to 550 mg/kg

CCOC(=O)c1cnc(N2CCNCC2)nc1C(=O)OCC [Compound 144]
Cells having neurites with a length at least twice the long diameter of cell/total number of cells [1, 4]: 9.9 ± 1.5% | Cells having neurites with a length at least twice the long diameter of cell/total number of cells ([1]; Table 3 Run No. 2, 0.3 mM, control 1.9 ± 0.9): 19.4 ± 3.2% | Number of dead animals/number of test animals ([2]; Table 6, 300 mg/kg p.o.): 0/5 | Number of dead animals/number of test animals ([2]; Table 6, 500 mg/kg p.o.): 0/5 | Number of dead animals/number of test animals ([2]; Table 6, 1000 mg/kg p.o.): 3/5 | LD50 at 24 h ([3]; Table 6, p.o.): 550 to 1000 mg/kg

CN1C(=O)Cc2cnc(N3CCNCC3)nc21 [Compound 406]
Cells having neurites with a length at least twice the long diameter of cell/total number of cells [1, 5]: 16.2 ± 3.7% | Cells having neurites with a length at least twice the long diameter of cell/total number of cells ([1]; Table 3 Run No. 4, 0.3 mM, control 3.1 ± 0.2): 29.9 ± 2.6% | Cells having neurites with a length at least twice the long diameter of cell/total number of cells [1, 6]: 44.8 ± 0.8% | Cells having neurites with a length at least twice the long diameter of cell/total number of cells ([1]; Table 3 Run No. 7, 0.1 mM, control 2.5 ± 0.7): 10.3 ± 1.6% | Cells having neurites with a length at least twice the long diameter of cell/total number of cells ([1]; Table 3 Run No. 7, 0.3 mM, control 2.5 ± 0.7): 22.6 ± 2.2% | Cells having neurites with a length at least twice the long diameter of cell/total number of cells ([1]; Table 3 Run No. 7, 0.5 mM, control 2.5 ± 0.7): 40.2 ± 3.4% | Cells having neurites with a length at least twice the long diameter of cell/total number of cells ([1]; Table 3 second Run No. 5, 0.03 mM, control 4.5 ± 0.3): 7.6 ± 1.8% | Cells having neurites with a length at least twice the long diameter of cell/total number of cells [1, 7]: 18.4 ± 3.0% | Cells having neurites with a length at least twice the long diameter of cell/total number of cells [1, 8]: 32.4 ± 4.3% | Number of dead animals/number of test animals ([2]; Table 7, 1000 mg/kg p.o., 1000 mg/kg): 1/5 | LD50 at 24 h ([3]; Table 7, p.o.): > 1000 mg/kg

O=C1Cc2cnc(N3CCNCC3)nc2N1 [Compound 424]
Cells having neurites with a length at least twice the long diameter of cell/total number of cells ([1]; Table 3 first Run No. 5, 0.5 mM, no control given): 12.6 ± 1.1% | Cells having neurites with a length at least twice the long diameter of cell/total number of cells ([1]; Table 3 first Run No. 5, 1 mM, no control given): 27.1 ± 2.1% | Number of dead animals/number of test animals ([2]; Table 7, 1000 mg/kg p.o.): 0/5 | LD50 at 24 h ([3]; Table 7, p.o.): > 1000 mg/kg

COCCN1C(=O)Cc2cnc(N3CCNCC3)nc21 [Compound 428]
Cells having neurites with a length at least twice the long diameter of cell/total number of cells ([1]; Table 3 Run No. 3, 0.03 mM, control 3.9 ± 0.3): 6.7 ± 1.5% | Cells having neurites with a length at least twice the long diameter of cell/total number of cells ([1]; Table 3 Run No. 3, 0.3 mM, control 3.9 ± 0.3): 17.3 ± 0.8% | Cells having neurites with a length at least twice the long diameter of cell/total number of cells ([1]; Table 3 Run No. 3, 1 mM, control 3.9 ± 0.3): 30.1 ± 2.4% | Cells having neurites with a length at least twice the long diameter of cell/total number of cells [1, 5]: 13.7 ± 2.1% | Cells having neurites with a length at least twice the long diameter of cell/total number of cells [1, 6]: 27.2 ± 3.1% | Cells having neurites with a length at least twice the long diameter of cell/total number of cells ([1]; Table 3 Run No. 4, 1 mM, control 3.1 ± 0.2): 29.1 ± 2.4% | Cells having neurites with a length at least twice the long diameter of cell/total number of cells [1, 7]: 9.8 ± 2.3% | Cells having neurites with a length at least twice the long diameter of cell/total number of cells [1, 8]: 14.1 ± 1.5% | Cells having neurites with a length at least twice the long diameter of cell/total number of cells ([1]; Table 3 second Run No. 5, 1 mM, control 4.5 ± 0.3): 15.6 ± 1.0% | Number of dead animals/number of test animals ([2]; Table 7, 1000 mg/kg p.o.): 0/5 | LD50 at 24 h ([3]; Table 7, p.o.): > 1000 mg/kg

CC(C)n1ccc2nc(N3CCNCC3)ncc2c1=O [Compound 713]
Number of dead animals/number of test animals ([2]; Table 6, 300 mg/kg p.o.): 0/5 | Number of dead animals/number of test animals ([2]; Table 6, 500 mg/kg p.o.): 0/5 | Number of dead animals/number of test animals ([2]; Table 6, 1000 mg/kg p.o.): 2/5 | LD50 at 24 h ([3]; Table 6, p.o.): > 1000 mg/kg

CCCn1ccc2nc(N3CCNCC3)ncc2c1=O [Compound 715]
Number of dead animals/number of test animals ([2]; Table 6, 300 mg/kg p.o.): 0/5 | Number of dead animals/number of test animals ([2]; Table 6, 500 mg/kg p.o.): 0/5 | Number of dead animals/number of test animals ([2]; Table 6, 1000 mg/kg p.o.): 4/5 | LD50 at 24 h ([3]; Table 6, p.o.): 550 to 1000 mg/kg

CCn1cc(C=O)c2nc(N3CCNCC3)ncc2c1=O [Compound 744]
Number of dead animals/number of test animals ([2]; Table 6, 500 mg/kg p.o.): 0/5 | Number of dead animals/number of test animals ([2]; Table 6, 1000 mg/kg p.o.): 3/5 | LD50 at 24 h ([3]; Table 6, p.o.): 550 to 1000 mg/kg

From patent US4959368A, “Therapeutic agent for neurological diseases” (Mitsui Petrochemical Industries Ltd., priority 1986, dated 1990)
